Consider 25 molecules from patent US20250092031A1, “RIPK3 INHIBITORS AND METHODS OF USE” (Momentum Therapeutics, Inc., priority 2023, published 2025).

One experiment has as its system Human HT-29 cells. As to the kind of experiment: Necroptosis inhibition assay in HT-29 cells (hTNFα + zVAD + SMAC mimetic, Sytox Green/Hoechst). In kind it is cell-based. Conditions: 10 ng/ml hTNFα, 20 μM zVAD and 100 nM SMAC mimetic, 6 hours, Sytox/Hoechst positive cells, read-out: HT29 necroptosis inhibition IC50. How it is done:
Human HT-29 cells (ATCC-HTB-38) were seeded at 10,000 cells/well in a 96-well plate. Cells were treated 48 hours after seeding with 10 ng/ml hTNFα (R&D Systems), 20 μM zVAD (ChemShuttle) and 100 nM SMAC mimetic (MedChem Express) in the presence of different concentrations of compounds ranging from […] to 0.01 μM. Cells treated with 0.1% DMSO or cells treated with TNFα+zVAD+SMAC mimetic were used as control and vehicle respectively.
Assay plates containing cells were incubated for 6 hours at 37° C. and 5% CO2. Necroptosis was assessed using Sytox Green Nucleic Acid Stain (Invitrogen) and Hoechst staining. After incubation, 100 μL of Sytox dye at 2 μM (2×) diluted in HBSS 1× was added to each well. At the same time, Hoechst stain is added to a final concentration of 10 μM and incubated for 15 min at room temperature. Images were taken for Sytox and Hoechst using the Cytation 5 microplate reader with DAPI and GFP filter cubes (Biotek). Sytox and Hoechst positive cells were counted with CellProfiler software.
Percentage of necroptosis inhibition was calculated as the percent compared to control and vehicle conditions which correspond to 100% and 0% respectively. The half-maximum necroptosis inhibition (IC50) levels were calculated using GraphPad Prism software and are shown in Table 3 (NT represents compound not tested).

The next experiment deals with T1, RIPK3 (Homo sapiens, UniProt Q9Y572).
T1 construct: purchased Reaction Biology Corporation (RBC), Malvern, USA (contract assay service)
As to the kind of experiment: RIPK3 kinase assay (radiometric HotSpot, Reaction Biology Corporation). In kind it is biochemical. The procedure: The assays were performed in Reaction Biology Corporation (RBC), Malvern, USA. Compounds were diluted with DMSO to a final stock concentration of 10 mM and then were tested in a 10-dose IC50 mode with a 3-fold serial dilution starting at […]. All the reactions were carried out at 10 μM ATP and MBP 20 μM as substrates. RIPK3 activity was determined using radiometric HotSpot™ kinase assay protocol and IC50 values were calculated use GraphPad Prism software.

In a further experiment the test system is Murine L929 cells. Briefly: Necroptosis inhibition assay in L929 cells (mTNFα + zVAD, Sytox Green). The class given is cell-based. Conditions: Mus musculus, 10 ng/ml mTNFα and 20 μM zVAD, 6 hours, Sytox Green fluorescence. The essentials: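 Murine L929 cells, treated 48 h after seeding with 10 ng/ml mTNFα plus 20 μM zVAD and compound ([…]), 6 h at 37° C. Necroptosis read by Sytox Green fluorescence (500ex/530em), scaled between 0.1% DMSO and TNFα+zVAD wells; IC50 from inhibition curves.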

T1 sequence (Q9Y572 whole entry): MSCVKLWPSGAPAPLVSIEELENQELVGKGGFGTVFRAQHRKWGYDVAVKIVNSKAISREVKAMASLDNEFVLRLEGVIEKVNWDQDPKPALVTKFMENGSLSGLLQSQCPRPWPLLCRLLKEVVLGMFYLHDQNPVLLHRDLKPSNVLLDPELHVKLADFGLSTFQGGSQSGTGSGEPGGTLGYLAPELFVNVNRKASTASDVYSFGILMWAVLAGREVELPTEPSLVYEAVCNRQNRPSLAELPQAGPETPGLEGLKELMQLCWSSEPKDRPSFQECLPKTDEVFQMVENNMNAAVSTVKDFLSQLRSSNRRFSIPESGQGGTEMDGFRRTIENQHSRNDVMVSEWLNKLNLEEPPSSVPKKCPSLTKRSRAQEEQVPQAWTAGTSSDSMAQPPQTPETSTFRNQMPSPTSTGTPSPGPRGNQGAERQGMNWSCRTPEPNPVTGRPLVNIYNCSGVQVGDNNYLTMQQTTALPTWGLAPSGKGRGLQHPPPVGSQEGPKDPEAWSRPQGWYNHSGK

As a reminder, the IC50 is the concentration that gives 50% inhibition. Consider `CN1CCN(Cc2ccc(-c3ccc4nccc(Nc5ccc6scnc6c5)c4c3)cc2)CC1` [Compound 1, N-(6-(4-((4-methylpiperazin-1-yl)methyl)phenyl)quinolin-4-yl)benzo[d]thiazol-5-amine], for which the values for the concentration for half-maximal inhibition (IC50) in the experiment with Human HT-29 cells, at RIPK3 and in the experiment on Murine L929 cells were 334 nM, 2.58 nM and 341 nM, respectively.

Consider `CN1CCN(Cc2ccc(-c3ccc4nccc(Nc5ccc6scnc6c5)c4c3)c(F)c2)CC1` [Compound 11, N-(6-(2-fluoro-4-((4-methylpiperazin-1-yl)methyl)phenyl)quinolin-4-yl)benzo[d]thiazol-5-amine], for which the 50% inhibitory concentration (IC50) with Human HT-29 cells was 102 nM; against RIPK3 it was 1.29 nM; with Murine L929 cells, 333 nM.

Turning to `O=C1CN(Cc2ccc(-c3ccc4nccc(Nc5ccc6scnc6c5)c4c3)c(F)c2)CCN1` [Compound 12, 4-(4-(4-(benzo[d]thiazol-5-ylamino)quinolin-6-yl)-3-fluorobenzyl)piperazin-2-one], the concentration for half-maximal inhibition (IC50) in the experiment on Human HT-29 cells is 208 nM; against RIPK3, 1.67 nM; in the experiment on Murine L929 cells it was 776 nM.

Take `CN1CCN(Cc2ccc(-c3ccc4nccc(Nc5ccc6scnc6c5)c4c3)c(F)c2)CC1=O` [Compound 13, 4-(4-(4-(benzo[d]thiazol-5-ylamino)quinolin-6-yl)-3-fluorobenzyl)-1-methylpiperazin-2-one]: the IC50 in the experiment with Human HT-29 cells turned out to be 317 nM; on RIPK3, 1.72 nM; in the experiment with Murine L929 cells it was 1130 nM.

With `Fc1cc(CN2CCCCC2)ccc1-c1ccc2nccc(Nc3ccc4scnc4c3)c2c1` [Compound 14, N-(6-(2-fluoro-4-(piperidin-1-ylmethyl)phenyl)quinolin-4-yl)benzo[d]thiazol-5-amine], the IC50 in the experiment with Human HT-29 cells is 565 nM; at RIPK3 it was 2.99 nM; with Murine L929 cells, 492 nM.

As to `CN1CCN(c2ccc(-c3ccc4nccc(Nc5ccc6scnc6c5)c4c3)cc2)CC1` [Compound 15, N-(6-(4-(4-methylpiperazin-1-yl)phenyl)quinolin-4-yl)benzo[d]thiazol-5-amine], the half-maximal inhibitory concentration (IC50) in the experiment with Human HT-29 cells was more than 1000 nM; at RIPK3, 3.57 nM; in the experiment with Murine L929 cells it was 1190 nM.

As for `CN1CCN(Cc2ccc(-c3ccc4c(Nc5ccc6scnc6c5)ccnc4c3)cc2)CC1` [Compound 16, N-(7-(4-((4-methylpiperazin-1-yl)methyl)phenyl)quinolin-4-yl)benzo[d]thiazol-5-amine], the concentration for half-maximal inhibition (IC50) was determined as 158 nM with Human HT-29 cells, 0.51 nM on RIPK3 and 104 nM in the experiment on Murine L929 cells.

Regarding `OCCN1CCN(Cc2ccc(-c3ccc4nccc(Nc5ccc6scnc6c5)c4c3)c(F)c2)CC1` [Compound 17, 2-(4-(4-(4-(benzo[d]thiazol-5-ylamino)quinolin-6-yl)-3-fluorobenzyl)piperazin-1-yl)ethanol], the half-inhibitory concentration (IC50) in the experiment with Human HT-29 cells came out at 97.1 nM; on RIPK3, 0.95 nM; in the experiment on Murine L929 cells it was 341 nM.

As for `CN1CCN(Cc2ccc(-c3ccc4nccc(Nc5ccc6scnc6c5)c4c3)cc2F)CC1` [Compound 21, N-(6-(3-fluoro-4-((4-methylpiperazin-1-yl)methyl)phenyl)quinolin-4-yl)benzo[d]thiazol-5-amine], the IC50 against RIPK3 was 1.51 nM; in the experiment on Murine L929 cells, less than 10000 nM.

For `Fc1cc(CN2CCOCC2)ccc1-c1ccc2nccc(Nc3ccc4scnc4c3)c2c1` [Compound 22, N-(6-(2-fluoro-4-(morpholinomethyl)phenyl)quinolin-4-yl)benzo[d]thiazol-5-amine], the concentration for half-maximal inhibition (IC50) amounted to 327 nM in the experiment with Human HT-29 cells, 2.13 nM against RIPK3 and 316 nM in the experiment with Murine L929 cells.

As for `Fc1cc(CN2CCCC2)ccc1-c1ccc2nccc(Nc3ccc4scnc4c3)c2c1` [Compound 23, N-(6-(2-fluoro-4-(pyrrolidin-1-ylmethyl)phenyl)quinolin-4-yl)benzo[d]thiazol-5-amine], the figures for the half-inhibitory concentration (IC50) with Human HT-29 cells, on RIPK3 and in the experiment on Murine L929 cells were 302 nM, 2.21 nM and 275 nM, respectively.

For the molecule `CN1CCCN(Cc2ccc(-c3ccc4nccc(Nc5ccc6scnc6c5)c4c3)c(F)c2)CC1` [Compound 27, N-(6-(2-fluoro-4-((4-methyl-1,4-diazepan-1-yl)methyl)phenyl)quinolin-4-yl)benzo[d]thiazol-5-amine], the IC50 turned out to be 168 nM with Human HT-29 cells, 1.13 nM on RIPK3 and 669 nM in the experiment on Murine L929 cells.

Regarding `CN1CCC(c2ccc(-c3ccc4nccc(Nc5ccc6scnc6c5)c4c3)cc2)CC1` [Compound 28, N-(6-(4-(1-methylpiperidin-4-yl)phenyl)quinolin-4-yl)benzo[d]thiazol-5-amine], the IC50 in the experiment on Human HT-29 cells was more than 10000 nM; on RIPK3, 3.47 nM; with Murine L929 cells it was 2590 nM.

`CN1CCN(Cc2ccc(-c3ccc4c(Nc5ccc6scnc6c5)ccnc4c3)c(F)c2)CC1` [Compound 29, N-(7-(2-fluoro-4-((4-methylpiperazin-1-yl)methyl)phenyl)quinolin-4-yl)benzo[d]thiazol-5-amine]: the IC50 in the experiment on Human HT-29 cells was 341 nM; on RIPK3, 2.31 nM; with Murine L929 cells it was 494 nM.

As for `CN1CCN(Cc2ccc(-c3ccc4nccc(Nc5ccc(Cl)c(Cl)c5)c4c3)c(F)c2)CC1` [Compound 31, N-(3,4-dichlorophenyl)-6-(2-fluoro-4-((4-methylpiperazin-1-yl)methyl)phenyl)quinolin-4-amine], the IC50 was 523 nM with Human HT-29 cells, 2.75 nM against RIPK3 and 1660 nM with Murine L929 cells.

Turning to `CN1CCN(C(=O)c2ccc(-c3ccc4c(Nc5ccc6scnc6c5)ccnc4c3)cc2)CC1` [Compound 34, (4-(4-(benzo[d]thiazol-5-ylamino)quinolin-7-yl)phenyl)(4-methylpiperazin-1-yl)methanone], the IC50 with Human HT-29 cells came to 119 nM; at RIPK3, 0.65 nM; with Murine L929 cells, 68.5 nM.

In the case of `CN1CCN(C(=O)c2ccc(-c3ccc4nccc(Nc5ccc6scnc6c5)c4c3)cc2)CC1` [Compound 35, (4-(4-(benzo[d]thiazol-5-ylamino)quinolin-6-yl)phenyl)(4-methylpiperazin-1-yl)methanone], the values for the concentration for half-maximal inhibition (IC50) in the experiment on Human HT-29 cells, against RIPK3 and in the experiment with Murine L929 cells were 116 nM, 3.97 nM and 818 nM, respectively.

As to `O=C(c1ccc(-c2ccc3c(Nc4ccc5scnc5c4)ccnc3c2)c(F)c1)N1CCOCC1` [Compound 244, (4-(4-(benzo[d]thiazol-5-ylamino)quinolin-7-yl)-3-fluorophenyl)(morpholino)methanone], the IC50 was 1.92 nM on RIPK3 and less than 1000 nM in the experiment on Murine L929 cells.

Turning to `O=C(c1ccc(-c2cc3c(Nc4ccc5scnc5c4)ccnc3cc2F)c(F)c1)N1CCOCC1` [Compound 322, (4-(4-(benzo[d]thiazol-5-ylamino)-7-fluoroquinolin-6-yl)-3-fluorophenyl)(morpholino)methanone], the values for the IC50 with Human HT-29 cells and in the experiment with Murine L929 cells were 111 nM and 175 nM, respectively.

With `Fc1cc(CN2CC3(CNC3)C2)ccc1-c1ccc2c(Nc3ccc4scnc4c3)ccnc2c1` [Compound 323, N-(7-(4-((2,6-diazaspiro[3.3]heptan-2-yl)methyl)-2-fluorophenyl)quinolin-4-yl)benzo[d]thiazol-5-amine], the figures for the IC50 in the experiment with Human HT-29 cells and in the experiment on Murine L929 cells were 296 nM and 454 nM, respectively.

With `O=C(c1ccc(-c2ccc3nccc(Nc4ccc5scnc5c4)c3c2)c(F)c1)N1CC2(COC2)C1` [Compound 324, (4-(4-(benzo[d]thiazol-5-ylamino)quinolin-6-yl)-3-fluorophenyl)(2-oxa-6-azaspiro[3.3]heptan-6-yl)methanone], the IC50 in the experiment with Human HT-29 cells was 76.5 nM; in the experiment with Murine L929 cells it was 223 nM.

Turning to `O=C(NC1CCOCC1)c1ccc(-c2ccc3nccc(Nc4ccc5scnc5c4)c3c2)c(F)c1` [Compound 325, 4-(4-(benzo[d]thiazol-5-ylamino)quinolin-6-yl)-3-fluoro-N-(tetrahydro-2H-pyran-4-yl)benzamide], the 50% inhibitory concentration (IC50) with Human HT-29 cells is 69.7 nM; in the experiment on Murine L929 cells, 665 nM.

As to `O=C(c1ccc(-c2ccc3nccc(Nc4ccc5scnc5c4)c3c2)cn1)N1CCOCC1` [Compound 326, (5-(4-(benzo[d]thiazol-5-ylamino)quinolin-6-yl)pyridin-2-yl)(morpholino)methanone], the half-inhibitory concentration (IC50) turned out to be 305 nM in the experiment on Human HT-29 cells and 1790 nM in the experiment with Murine L929 cells.

With `CN1CCN(Cc2ccc(-c3ccc4c(Nc5ccc6scnc6c5)ccnc4c3)c(F)c2)CC1=O` [Compound 327, 4-(4-(4-(benzo[d]thiazol-5-ylamino)quinolin-7-yl)-3-fluorobenzyl)-1-methylpiperazin-2-one], the IC50 in the experiment with Human HT-29 cells worked out at 25.2 nM; in the experiment on Murine L929 cells, 160 nM.

Consider `CC(C)S(=O)(=O)c1ccc2nccc(Nc3ccc4scnc4c3)c2c1` [Compound A, N-(6-(isopropylsulfonyl)quinolin-4-yl)benzo[d]thiazol-5-amine, reference compound], for which the 50% inhibitory concentration (IC50) in the experiment with Human HT-29 cells stood at 1260 nM; with Murine L929 cells, 1960 nM.
